# Measurements taken from publication PMC12028158, “Synthesis and In Vitro Evaluation of the Anticancer Effect of Novel Phosphonium Vindoline Derivatives” (International Journal of Molecular Sciences, 2025).
# Where two headings read alike, the source gives them in different places.
# Legend:
# Format in all cases: cell-based
# [1] = test system: CAKI-1; test: NCI60 one-dose screen; conditions: Homo sapiens
# [2] = test system: OVCAR-3; test: NCI60 one-dose screen; conditions: Homo sapiens
# [3] = test system: HCC-2998; test: NCI60 five-dose screen; conditions: Homo sapiens
# [4] = test system: U251; test: NCI60 one-dose screen; conditions: Homo sapiens
# [5] = test system: MOLT-4; test: NCI60 five-dose screen; conditions: Homo sapiens
# [6] = test system: ACHN; test: NCI60 one-dose screen; conditions: Homo sapiens, read-out: Growth percent
# [7] = test system: NCI-H460; test: NCI60 five-dose screen; conditions: Homo sapiens
# [8] = test system: BT-549; test: NCI60 five-dose screen; conditions: Homo sapiens
# [9] = test system: HOP-92; test: NCI60 five-dose screen; conditions: Homo sapiens
# [10] = test system: T-47D; test: NCI60 one-dose screen; conditions: Homo sapiens, T47D, read-out: Growth percent
# [11] = test system: OVCAR-4; test: NCI60 five-dose screen; conditions: Homo sapiens
# [12] = test system: CCRF-CEM; test: NCI60 five-dose screen; conditions: Homo sapiens
# [13] = test system: MDA-MB-231/ATCC; test: NCI60 one-dose screen; conditions: Homo sapiens
# [14] = test system: 60 human tumor cell lines (NCI60); test: NCI60 one-dose screen, overall mean; conditions: Homo sapiens, read-out: Mean growth percent
# [15] = test system: UO-31; test: NCI60 one-dose screen; conditions: Homo sapiens
# [16] = test system: HCT-116; test: NCI60 one-dose screen; conditions: Homo sapiens
# [17] = test system: NCI-H226; test: NCI60 one-dose screen; conditions: Homo sapiens
# [18] = test system: MDA-MB-468; test: NCI60 one-dose screen; conditions: Homo sapiens
# [19] = test system: DU-145; test: NCI60 one-dose screen; conditions: Homo sapiens
# [20] = test system: RXF 393; test: NCI60 one-dose screen; conditions: Homo sapiens
# [21] = test system: HT29; test: NCI60 five-dose screen; conditions: Homo sapiens, HT-29
# [22] = test system: PC-3; test: NCI60 one-dose screen; conditions: Homo sapiens
# [23] = test system: HS 578T; test: NCI60 five-dose screen; conditions: Homo sapiens
# [24] = test system: CNS Cancer panel; test: NCI60 five-dose screen, panel mean; conditions: Homo sapiens
# [25] = test system: HOP-62; test: NCI60 one-dose screen; conditions: Homo sapiens
# [26] = test system: LOX IMVI; test: NCI60 one-dose screen; conditions: Homo sapiens, read-out: Growth percent
# [27] = test system: COLO 205; test: NCI60 five-dose screen; conditions: Homo sapiens
# [28] = test system: CAKI-1; test: NCI60 five-dose screen; conditions: Homo sapiens
# [29] = test system: OVCAR-5; test: NCI60 five-dose screen; conditions: Homo sapiens
# [30] = test system: HL-60(TB); test: NCI60 one-dose screen; conditions: Homo sapiens
# [31] = test system: 786-0; test: NCI60 five-dose screen; conditions: Homo sapiens
# [32] = test system: A498; test: NCI60 five-dose screen; conditions: Homo sapiens
# [33] = test system: RXF 393; test: NCI60 five-dose screen; conditions: Homo sapiens
# [34] = test system: Breast Cancer panel; test: NCI60 five-dose screen, panel mean; conditions: Homo sapiens
# [35] = test system: HT29; test: NCI60 one-dose screen; conditions: Homo sapiens
# [36] = test system: UACC-62; test: NCI60 five-dose screen; conditions: Homo sapiens
# [37] = test system: BT-549; test: NCI60 one-dose screen; conditions: Homo sapiens
# [38] = test system: EKVX; test: NCI60 one-dose screen; conditions: Homo sapiens, read-out: Growth percent
# [39] = test system: RPMI-8226; test: NCI60 five-dose screen; conditions: Homo sapiens
# [40] = test system: OVCAR-5; test: NCI60 one-dose screen; conditions: Homo sapiens
# [41] = test system: NCI-H226; test: NCI60 five-dose screen; conditions: Homo sapiens
# [42] = test system: SW-620; test: NCI60 five-dose screen; conditions: Homo sapiens
# [43] = test system: NCI/ADR-RES; test: NCI60 one-dose screen; conditions: Homo sapiens, read-out: Growth percent
# [44] = test system: HCT-15; test: NCI60 one-dose screen; conditions: Homo sapiens
# [45] = test system: A498; test: NCI60 one-dose screen; conditions: Homo sapiens
# [46] = test system: DU-145; test: NCI60 five-dose screen; conditions: Homo sapiens
structure (smiles),measurement,setting,value
CC[C@]12C=CCN3CC[C@@]4(c5ccc(OC)cc5N(C)[C@H]4[C@@](O)(C(=O)OC)[C@@H]1OC(=O)CCC[P+](c1ccc(F)cc1)(c1ccc(F)cc1)c1ccc(F)cc1)[C@@H]32 [9c],activity at 10 µM,"[1]; CAKI-1, read-out: Growth percent",73.1%
same,activity at 10 µM,"[2]; OVCAR-3, read-out: Growth percent",21.1%
same,GI50,[3]; HCC 2998,9.53 µM
same,activity at 10 µM,"[4]; U-251, read-out: Growth percent",18.5%
same,GI50,[5]; MOLT-4,9.69 µM
same,activity at 10 µM,[6],101%
same,GI50,[7]; NCI-H460,17 µM
same,GI50,[8]; BT-549,8.13 µM
same,GI50,[9]; HOP-92,5.44 µM
same,activity at 10 µM,[10],10.4%
same,GI50,[11]; OVCAR-4,16.2 µM
same,GI50,[12],12.7 µM
same,activity at 10 µM,"[13]; MDA-MB-231, read-out: Growth percent",22%
same,activity at 10 µM,[14]; 60 cell,26.3%
same,activity at 10 µM,"[15]; UO-31, read-out: Growth percent",81.5%
same,activity at 10 µM,"[16]; HCT-116, read-out: Growth percent",32.2%
same,activity at 10 µM,"[17]; NCI-H226, read-out: Growth percent",46.9%
same,activity at 10 µM,"[18]; MDA-MB-468, read-out: Growth percent",-74.6%
same,activity at 10 µM,"[19]; DU-145, read-out: Growth percent",47.7%
same,activity at 10 µM,"[20]; RXF 393, read-out: Growth percent",-10.4%
same,GI50,[21],12.5 µM
same,activity at 10 µM,"[22]; PC-3, read-out: Growth percent",16.7%
same,GI50,[23]; Hs-578T,11.8 µM
same,GI50,[24]; read-out: Mean GI50,20.2 µM
same,activity at 10 µM,"[25]; HOP-62, read-out: Growth percent",64%
same,activity at 10 µM,[26],31.1%
same,GI50,[27]; COLO 205,4.98 µM
same,GI50,[28]; CAKI-1,> 48.5 µM
same,GI50,[29]; OVCAR-5,20.8 µM
same,activity at 10 µM,"[30]; HL-60, read-out: Growth percent",-22.9%
same,GI50,[31]; 786-0,> 48.5 µM
same,GI50,[32]; A498,> 48.5 µM
same,GI50,[33]; RXF 393,8.46 µM
same,GI50,[34]; read-out: Mean GI50,8.04 µM
same,activity at 10 µM,"[35]; HT-29, read-out: Growth percent",15.7%
same,GI50,[36]; UACC-62,6.05 µM
same,activity at 10 µM,"[37]; BT-549, read-out: Growth percent",-9.4%
same,activity at 10 µM,[38],58.1%
same,GI50,[39]; RPMI-8226,2.05 µM
same,activity at 10 µM,"[40]; OVCAR-5, read-out: Growth percent",67%
same,GI50,[41]; NCI-H226,24.2 µM
same,GI50,[42]; SW-620,18.3 µM
same,activity at 10 µM,[43],104%
same,activity at 10 µM,"[44]; HCT-15, read-out: Growth percent",99.6%
same,activity at 10 µM,"[45]; A498, read-out: Growth percent",101%
same,GI50,[46]; DU-145,23.7 µM
CC[C@]12C=CCN3CC[C@@]4(c5ccc(OC)cc5N(C)[C@H]4[C@@](O)(C(=O)OC)[C@@H]1OC(=O)CCCC[P+](c1ccc(F)cc1)(c1ccc(F)cc1)c1ccc(F)cc1)[C@@H]32 [10c],activity at 10 µM,"[1]; CAKI-1, 10 μM, one-dose, read-out: Growth percent",73.2%
same,activity at 10 µM,"[2]; OVCAR-3, 10 μM, one-dose, read-out: Growth percent",12.6%
same,GI50,"[3]; HCC-2998, Colon Cancer, read-out: GI50",12.5 µM
same,activity at 10 µM,"[4]; U-251, U251, 10 μM, one-dose, read-out: Growth percent",13%
same,GI50,"[5]; MOLT-4, Leukemia, read-out: GI50",14.7 µM
same,activity at 10 µM,"[6]; 10 μM, one-dose",103%
same,GI50,"[7]; NCI-H460, Non-small Cell Lung Cancer, read-out: GI50",29.4 µM
same,GI50,"[8]; BT-549, Breast Cancer, read-out: GI50",12.9 µM
same,GI50,"[9]; HOP-92, Non-small Cell Lung Cancer, read-out: GI50",6.32 µM
same,activity at 10 µM,"[10]; T-47D, 10 μM, one-dose",12.8%
same,GI50,"[11]; OVCAR-4, Ovarian Cancer, read-out: GI50",25.1 µM
same,GI50,"[12]; Leukemia, read-out: GI50",13.6 µM
same,activity at 10 µM,"[13]; MDA-MB-231/ATCC, 10 μM, one-dose, read-out: Growth percent",2.85%
same,activity at 10 µM,"[14]; mean over 60 cell lines, 10 μM, one-dose",17%
same,activity at 10 µM,"[15]; UO-31, 10 μM, one-dose, read-out: Growth percent",85.9%
same,activity at 10 µM,"[16]; HCT-116, 10 μM, one-dose, read-out: Growth percent",23.4%
same,activity at 10 µM,"[17]; NCI-H226, 10 μM, one-dose, read-out: Growth percent",38%
same,activity at 10 µM,"[18]; MDA-MB-468, 10 μM, one-dose, read-out: Growth percent",-74.6%
same,activity at 10 µM,"[19]; DU-145, 10 μM, one-dose, read-out: Growth percent",36.4%
same,activity at 10 µM,"[20]; RXF 393, 10 μM, one-dose, read-out: Growth percent",-9.93%
same,GI50,"[21]; HT29, Colon Cancer, read-out: GI50",15.4 µM
same,activity at 10 µM,"[22]; PC-3, 10 μM, one-dose, read-out: Growth percent",15.7%
same,GI50,"[23]; HS 578T, Breast Cancer, read-out: GI50",16.9 µM
same,GI50,"[24]; mean over CNS Cancer panel, read-out: GI50 Mean",18.8 µM
same,activity at 10 µM,"[25]; HOP-62, 10 μM, one-dose, read-out: Growth percent",51%
same,activity at 10 µM,"[26]; 10 μM, one-dose",25%
same,GI50,"[27]; COLO 205, COLO 205, Colon Cancer, read-out: GI50",4.63 µM
same,GI50,"[28]; CAKI-1, Renal Cancer, read-out: GI50",> 100 µM
same,GI50,"[29]; OVCAR-5, Ovarian Cancer, read-out: GI50",29.1 µM
same,activity at 10 µM,"[30]; HL-60(TB), 10 μM, one-dose, read-out: Growth percent",-32.2%
same,GI50,"[31]; 786-0, Renal Cancer, read-out: GI50",34.1 µM
same,GI50,"[32]; A498, Renal Cancer, read-out: GI50",> 100 µM
same,GI50,"[33]; RXF 393, Renal Cancer, read-out: GI50",13.3 µM
same,GI50,"[34]; mean over Breast Cancer panel, read-out: GI50 Mean",11.1 µM
same,activity at 10 µM,"[35]; HT-29, HT29, 10 μM, one-dose, read-out: Growth percent",15.9%
same,GI50,"[36]; UACC-62, Melanoma, read-out: GI50",11.3 µM
same,activity at 10 µM,"[37]; BT-549, 10 μM, one-dose, read-out: Growth percent",-23.5%
same,activity at 10 µM,"[38]; 10 μM, one-dose",53%
same,GI50,"[39]; RPMI-8226, Leukemia, read-out: GI50",2.97 µM
same,activity at 10 µM,"[40]; OVCAR-5, 10 μM, one-dose, read-out: Growth percent",49.7%
same,GI50,"[41]; NCI-H226, Non-small Cell Lung Cancer, read-out: GI50",27.3 µM
same,GI50,"[42]; SW-620, Colon Cancer, read-out: GI50",16.5 µM
same,activity at 10 µM,"[43]; 10 μM, one-dose",105%
same,activity at 10 µM,"[44]; HCT-15, 10 μM, one-dose, read-out: Growth percent",102%
same,activity at 10 µM,"[45]; A498, 10 μM, one-dose, read-out: Growth percent",99.2%
same,GI50,"[46]; DU-145, Prostate Cancer, read-out: GI50",35.4 µM
